US10294202B2, “Pyrrolidinones as herbicides” (FMC Corporation, priority 2013, dated 2019)

Key:
rice = assay: Test B flooded paddy test; type: in vivo, Oryza sativa; conditions: 500 g ai/ha, Flood; scale of 0 to 100 where 0 is no effect and 100 is complete control
Method in brief: (§1)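 Visual ratings from 0, meaning no effect, up to 100, meaning complete control, were made by comparison with untreated controls 13 to 15 days after treatment. Test compounds went straight into floodwater standing 3 cm over the soil of pots holding 2-leaf seedlings.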

galium = assay: Test A postemergence herbicide test; type: in vivo, Galium aparine
Method in brief: (§2)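 Blackgrass and galium grown in pots of loam soil–sand blend, treated postemergence at 2–10 cm height, one- to two-leaf stage. Plants kept in greenhouse ~10 days, then visually rated for injury against untreated controls on a 0–100 scale (0 no effect, 100 complete control).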

pigweed = assay: Test A pre-/postemergence herbicide test; type: in vivo, Amaranthus retroflexus
Method in brief: (§3)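 Planted in loam–sand blend; treated the same day preemergence by directed soil spray, while separately grown plants at one- to two-leaf stage got postemergence spray. Compared visually with untreated controls after approximately 10 days; 100 means complete control.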

barnyardgrass [1] = assay: Test A pre-/postemergence herbicide test; type: in vivo, Echinochloa crus-galli
Method in brief: as §3

giant foxtail = assay: Test A pre-/postemergence herbicide test; type: in vivo, Setaria faberii
Method in brief: as §3

ragweed = assay: Test A pre-/postemergence herbicide test; type: in vivo, Ambrosia elatior
Method in brief: as §3

sedge, umbrella = assay: Test B flooded paddy test; type: in vivo, Cyperus difformis; conditions: 500 g ai/ha, Flood; scale of 0 to 100 where 0 is no effect and 100 is complete control
Method in brief: as §1

corn = assay: Test A pre-/postemergence herbicide test; type: in vivo, Zea mays; conditions: Postemergence
Method in brief: as §3

kochia = assay: Test A pre-/postemergence herbicide test; type: in vivo, Kochia scoparia
Method in brief: as §3

ducksalad = assay: Test B flooded paddy test; type: in vivo, Heteranthera limosa; conditions: 500 g ai/ha, Flood; scale of 0 to 100 where 0 is no effect and 100 is complete control
Method in brief: as §1

wheat = assay: Test A pre-/postemergence herbicide test; type: in vivo, Triticum aestivum; conditions: Postemergence
Method in brief: as §3

ryegrass, Italian = assay: Test A pre-/postemergence herbicide test; type: in vivo, Lolium multiflorum
Method in brief: as §3

blackgrass = assay: Test A postemergence herbicide test; type: in vivo, Alopecurus myosuroides
Method in brief: as §2

barnyardgrass [2] = assay: Test B flooded paddy test; type: in vivo, Echinochloa crus-galli; conditions: 500 g ai/ha, Flood; scale of 0 to 100 where 0 is no effect and 100 is complete control
Method in brief: as §1

[3] = 125 g ai/ha, 0 to 100 scale, 0 is no effect, 100 is complete control
[4] = 125 g ai/ha, visual rating, 0 to 100 scale, 0 no effect, 100 complete control, approximately 10 days, preemergence
[5] = Postemergence, 125 g ai/ha, 0 to 100 scale, 0 is no effect, 100 is complete control
[6] = preemergence, 500 g ai/ha, 0 to 100 scale, 0 is no effect and 100 is complete control
[7] = 500 g ai/ha, 0 to 100 scale (0 no effect, 100 complete control)
[8] = Postemergence, 500 g ai/ha, 0 to 100 scale (0 no effect, 100 complete control)
[9] = Postemergence, 125 g ai/ha, visual rating on 0 to 100 scale (0 no effect, 100 complete control), approx. 10 days
[10] = Preemergence, 125 g ai/ha, 0 to 100 scale where 0 is no effect and 100 is complete control
[11] = 125 g ai/ha, visual rating on 0 to 100 scale (0 no effect, 100 complete control), approx. 10 days

O=C1NCC(c2cccc(OC(F)F)c2)C1C(=O)Nc1ccccc1Br (stereo not drawn) [Compound 228]
90: Foxtail, Giant plant response rating (0 to 100 scale, 0 is no effect, 100 is complete control) (giant foxtail; Postemergence, 500 g ai/ha) | Plant response rating, Foxtail, Giant (giant foxtail; [6]) | Plant response rating, Ducksalad (ducksalad)
80: Barnyardgrass plant response rating (0 to 100 scale, 0 is no effect, 100 is complete control) (barnyardgrass [1]; Postemergence, 500 g ai/ha) | Plant response rating, Barnyardgrass (barnyardgrass [1]; [6]) | Plant response rating, Foxtail, Giant (giant foxtail; [4])
40: Galium plant response rating (0 to 100 scale, 0 is no effect, 100 is complete control) (galium; 500 g ai/ha) | Plant response rating, Ryegrass, Italian (ryegrass, Italian; [6]) | Blackgrass plant response rating (0 to 100 scale, 0 is no effect, 100 is complete control) (blackgrass; 500 g ai/ha)
30: Plant response rating, Galium (galium; [3]) | Corn plant response rating (0 to 100 scale, 0 is no effect, 100 is complete control) (corn; 500 g ai/ha) | Kochia plant response rating (0 to 100 scale, 0 is no effect, 100 is complete control) (kochia; Postemergence, 500 g ai/ha) | Plant response rating, Ryegrass, Italian (ryegrass, Italian; [4])
50: Plant response rating, Barnyardgrass (barnyardgrass [1]; [4])
70: Plant response rating, Foxtail, Giant (giant foxtail; [5])
20: Ragweed plant response rating (0 to 100 scale, 0 is no effect, 100 is complete control) (ragweed; Postemergence, 500 g ai/ha) | Plant response rating, Ragweed (ragweed; [6]) | Plant response rating, Corn (corn; [3]) | Plant response rating, Kochia (kochia; [5]) | Plant response rating, Kochia (kochia; [6]) | Wheat plant response rating (0 to 100 scale, 0 is no effect, 100 is complete control) (wheat; 500 g ai/ha) | Ryegrass, Italian plant response rating (0 to 100 scale, 0 is no effect, 100 is complete control) (ryegrass, Italian; Postemergence, 500 g ai/ha) | Plant response rating, Blackgrass (blackgrass; [3])
60: Plant response rating, Barnyardgrass (barnyardgrass [1]; [5])
0: Plant response rating, Rice (rice) | Plant response rating, Pigweed (pigweed; [4]) | Plant response rating, Pigweed (pigweed; [5]) | Pigweed plant response rating (0 to 100 scale, 0 is no effect, 100 is complete control) (pigweed; Postemergence, 500 g ai/ha) | Plant response rating, Pigweed (pigweed; [6]) | Plant response rating, Ragweed (ragweed; [4]) | Plant response rating, Ragweed (ragweed; [5]) | Plant response rating, Sedge, Umbrella (sedge, umbrella) | Plant response rating, Kochia (kochia; [4]) | Plant response rating, Wheat (wheat; [3]) | Plant response rating, Ryegrass, Italian (ryegrass, Italian; [5]) | Plant response rating, Barnyardgrass (barnyardgrass [2])

O=C1NCC(c2ccc(F)cc2)C1C(=O)Nc1ccccc1F (stereo not drawn) [Compound 239]
50: Plant response rating, Barnyardgrass (barnyardgrass [1]; [4]) | Plant response rating, Barnyardgrass (barnyardgrass [1]; [5]) | Plant response rating, Foxtail, Giant (giant foxtail; [5]) | Plant response rating, Barnyardgrass (barnyardgrass [2])
100: Plant response rating, Ducksalad (ducksalad)
20: Plant response rating, Kochia (kochia; [8]) | Plant response rating, Wheat (wheat; [7]) | Plant response rating, Ryegrass, Italian (ryegrass, Italian; [8]) | Plant response rating, Blackgrass (blackgrass; [3]) | Plant response rating, Blackgrass (blackgrass; [7])
80: Plant response rating, Foxtail, Giant (giant foxtail; [4])
30: Plant response rating, Galium (galium; [7])
90: Plant response rating, Barnyardgrass (barnyardgrass [1]; [8]) | Plant response rating, Barnyardgrass (barnyardgrass [1]; [6]) | Plant response rating, Foxtail, Giant (giant foxtail; [8]) | Plant response rating, Foxtail, Giant (giant foxtail; [6]) | Plant response rating, Ragweed (ragweed; [6])
70: Plant response rating, Kochia (kochia; [6])
0: Plant response rating, Rice (rice) | Plant response rating, Galium (galium; [3]) | Plant response rating, Pigweed (pigweed; [4]) | Plant response rating, Pigweed (pigweed; [5]) | Plant response rating, Pigweed (pigweed; [8]) | Plant response rating, Pigweed (pigweed; [6]) | Plant response rating, Ragweed (ragweed; [4]) | Plant response rating, Ragweed (ragweed; [5]) | Plant response rating, Ragweed (ragweed; [8]) | Plant response rating, Sedge, Umbrella (sedge, umbrella) | Plant response rating, Corn (corn; [3]) | Plant response rating, Corn (corn; [7]) | Plant response rating, Kochia (kochia; [4]) | Plant response rating, Kochia (kochia; [5]) | Plant response rating, Wheat (wheat; [3]) | Plant response rating, Ryegrass, Italian (ryegrass, Italian; [4]) | Plant response rating, Ryegrass, Italian (ryegrass, Italian; [5]) | Plant response rating, Ryegrass, Italian (ryegrass, Italian; [6])

CC(C)N1CC(c2ccc(F)cc2)C(C(=O)Nc2cccc(F)c2F)C1=O (stereo not drawn) [Compound 276]
30: Plant response rating, Ducksalad (ducksalad)
0: Plant response rating, Rice (rice) | Plant response rating, Galium (galium; [3]) | Plant response rating, Galium (galium; [7]) | Plant response rating, Pigweed (pigweed; [9]) | Plant response rating, Pigweed (pigweed; [8]) | Plant response rating, Pigweed (pigweed; [10]) | Plant response rating, Pigweed (pigweed; [6]) | Plant response rating, Barnyardgrass (barnyardgrass [1]; [5]) | Plant response rating, Barnyardgrass (barnyardgrass [1]; [8]) | Plant response rating, Barnyardgrass (barnyardgrass [1]; [10]) | Plant response rating, Barnyardgrass (barnyardgrass [1]; [6]) | Plant response rating, Foxtail, Giant (giant foxtail; [5]) | Plant response rating, Foxtail, Giant (giant foxtail; [8]) | Plant response rating, Foxtail, Giant (giant foxtail; [10]) | Plant response rating, Foxtail, Giant (giant foxtail; [6]) | Plant response rating, Ragweed (ragweed; [9]) | Plant response rating, Ragweed (ragweed; [8]) | Plant response rating, Ragweed (ragweed; [10]) | Plant response rating, Ragweed (ragweed; [6]) | Plant response rating, Sedge, Umbrella (sedge, umbrella) | Plant response rating, Corn (corn; [3]) | Plant response rating, Corn (corn; [7]) | Plant response rating, Kochia (kochia; [5]) | Plant response rating, Kochia (kochia; [8]) | Plant response rating, Kochia (kochia; [10]) | Plant response rating, Kochia (kochia; [6]) | Plant response rating, Wheat (wheat; [11]) | Plant response rating, Wheat (wheat; [7]) | Plant response rating, Ryegrass, Italian (ryegrass, Italian; [9]) | Plant response rating, Ryegrass, Italian (ryegrass, Italian; [8]) | Plant response rating, Ryegrass, Italian (ryegrass, Italian; [10]) | Plant response rating, Ryegrass, Italian (ryegrass, Italian; [6]) | Plant response rating, Blackgrass (blackgrass; [3]) | Plant response rating, Blackgrass (blackgrass; [7]) | Plant response rating, Barnyardgrass (barnyardgrass [2])

O=C1NCC(c2ccc(Cl)o2)C1C(=O)Nc1ccccc1F (stereo not drawn) [Compound 284]
60: Plant response rating, Galium (galium; [7]) | Plant response rating, Barnyardgrass (barnyardgrass [1]; [6])
30: Plant response rating, Kochia (kochia; [6])
50: Plant response rating, Barnyardgrass (barnyardgrass [1]; [8])
70: Plant response rating, Foxtail, Giant (giant foxtail; [6])
10: Plant response rating, Rice (rice) | Plant response rating, Foxtail, Giant (giant foxtail; [8])
40: Plant response rating, Pigweed (pigweed; [6]) | Plant response rating, Foxtail, Giant (giant foxtail; [10])
80: Plant response rating, Ducksalad (ducksalad)
0: Plant response rating, Galium (galium; [11]) | Plant response rating, Pigweed (pigweed; [9]) | Plant response rating, Pigweed (pigweed; [8]) | Plant response rating, Pigweed (pigweed; [10]) | Plant response rating, Barnyardgrass (barnyardgrass [1]; [9]) | Plant response rating, Barnyardgrass (barnyardgrass [1]; [10]) | Plant response rating, Foxtail, Giant (giant foxtail; [9]) | Plant response rating, Ragweed (ragweed; [9]) | Plant response rating, Ragweed (ragweed; [8]) | Plant response rating, Ragweed (ragweed; [10]) | Plant response rating, Ragweed (ragweed; [6]) | Plant response rating, Sedge, Umbrella (sedge, umbrella) | Plant response rating, Corn (corn; [11]) | Plant response rating, Corn (corn; [7]) | Plant response rating, Kochia (kochia; [9]) | Plant response rating, Kochia (kochia; [8]) | Plant response rating, Kochia (kochia; [10]) | Plant response rating, Wheat (wheat; [11]) | Plant response rating, Wheat (wheat; [7]) | Plant response rating, Ryegrass, Italian (ryegrass, Italian; [9]) | Plant response rating, Ryegrass, Italian (ryegrass, Italian; [8]) | Plant response rating, Ryegrass, Italian (ryegrass, Italian; [10]) | Ryegrass, Italian plant response rating (ryegrass, Italian; Preemergence, 500 g ai/ha, visual rating on 0 to 100 scale (0 no effect, 100 complete control)) | Plant response rating, Blackgrass (blackgrass; [11]) | Plant response rating, Blackgrass (blackgrass; [7]) | Plant response rating, Barnyardgrass (barnyardgrass [2])
